# Biological target: T1, recombinant GSK3β enzyme (human GSK3β) (Homo sapiens, UniProt P49841)
# T1 construct: FLAG (N); made in house; host or cells: Sf-21 insect cells, recombinant baculovirus (pFASTBAC1 / BAC-TO-BAC)
# Assay: Measurement of GSK3β inhibitory activity
# Type: biochemical
# Details: glycogen synthase peptide substrate, Kinase Glo luminescence, read-out: IC50 (concentration of test compound needed for 50% inhibition of luminescent intensity), GSK3β inhibitory activity
# Source text: Human GSK3β gene was cloned by a PCR method using a primer set:
# prepared using human brain cDNA (Clontech; trade name: QUICK-Clone cDNA) as a template and in reference to the base sequence of GSK3β gene registered in GenBank under Accession Number NM_002093.
# PCR was done according to the protocol attached to KOD plus DNA polymerase (Toyo Boseki Kabushiki Kaisha). The obtained PCR product was electrophoresed on agarose gel (1%), and 1.2 kb of DNA fragment including GSK3β gene was collected from the gel and then digested with restriction enzymes EcoR I and Sal I. The restriction enzyme-treated DNA was electrophoresed on agarose gel (1%). The obtained DNA fragment was collected, and ligated to the plasmid pFASTBAC1 (Invitrogen), which had been digested with restriction enzyme EcoR I and Sal I, to produce expression plasmid pFB-GSK3B. The base sequence of insertion fragment was confirmed to find that it corresponded to the objective sequence. In addition, virus stock BAC-GSK3B of recombinant Baculovirus was prepared using BAC-TO-BAC Baculovirus Expression System (Invitrogen).
# Sf-21 cells (Invitrogen) were seeded on Sf-900 II SFM medium (Invitrogen)(150 ml) containing 10% fetal calf serum at 1×10^6 cells/ml, and cultured at 27° C. for 24 hr. The virus stock […] obtained above of recombinant Baculovirus was added by 150 μl to the obtained culture medium, and the cells were cultured for another 60 hr. The culture medium was centrifuged (3000 rpm, 10 min) to separate the cells, and the cells were washed once with PBS. The cells were suspended in 10 ml of cell lysis buffer (25 mM HEPES (pH 7.5), 1% Triton X, 130 mM sodium chloride, 1 mM EDTA, 1 mM Dithiothreitol, 25 mM β-glycerophosphate, Protease inhibitor Complete (Boehringer), 1 mM Sodium orthovanadate), treated 4 times using a homogenizer (POLYTRON) at 20000 rpm for 30 sec to disrupt the cells. The disrupted solution of cells was centrifuged (40000 rpm, 45 min.), and GSK3β was purified from the obtained supernatant using Anti-FLAG M2 Affinity Gel (Sigma Ltd.).
# 10 μl of ATP solution (2.5 μM ATP) was added to the obtained mixture, and the mixture was reacted at room temperature for 30 min. Kinase Glo Reagent (Promega) (50 μl) was added to the reaction solution to stop the reaction. After reaction at room temperature for 10 min, the luminescent intensity was measured using ARVO multilabel counter (PerkinElmer Life Sciences). The concentrations of the test compounds needed for 50% inhibition of luminescent intensity (IC50 value) were calculated by PRISM 3.0 (GraphPad Software).
# T1 sequence (P49841 whole entry): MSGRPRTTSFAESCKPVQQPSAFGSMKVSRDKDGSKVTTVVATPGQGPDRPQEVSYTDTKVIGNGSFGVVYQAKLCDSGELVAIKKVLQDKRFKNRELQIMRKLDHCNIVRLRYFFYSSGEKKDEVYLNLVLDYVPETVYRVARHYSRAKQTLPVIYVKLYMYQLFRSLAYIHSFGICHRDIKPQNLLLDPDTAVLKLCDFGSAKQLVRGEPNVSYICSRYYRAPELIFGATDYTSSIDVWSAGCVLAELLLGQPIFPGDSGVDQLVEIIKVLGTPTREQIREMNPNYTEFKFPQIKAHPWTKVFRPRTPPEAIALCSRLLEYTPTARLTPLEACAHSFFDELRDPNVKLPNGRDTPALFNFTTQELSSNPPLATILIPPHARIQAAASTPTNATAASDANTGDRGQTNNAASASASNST
row,IC50 [nM],SMILES
1,157,"O=C(Nc1c[nH]nc1C(=O)NCc1ccccc1)c1ccc(OC(F)(F)F)cc1 [Example 117, N-benzyl-4-{[4-(trifluoromethoxy)benzoyl]-amino}-1H-pyrazole-3-carboxamide]"
2,267,"CC(C)NC(=O)c1n[nH]cc1NC(=O)COc1ccccc1 [compound 001, N-isopropyl-4-((phenoxyacetyl)amino)-1H-pyrazole-3-carboxamide]"
3,171,CCCN(CCC)S(=O)(=O)c1ccc(C(=O)Nc2c[nH]nc2C(=O)NC(C)C)cc1 [compound 033]
4,< 100,CCOCC(=O)Nc1c[nH]nc1C(=O)Nc1ccccc1 [compound 085]
5,< 100,"O=C(Nc1c[nH]nc1C(=O)NCCNc1ccccn1)c1ccccn1 [Example 397, N-(3-(((2-(pyridin-2-ylamino)ethyl)amino)carbonyl)-1H-pyrazol-4-yl)pyridine-2-carboxamide]"
6,< 100,"O=C(Nc1c[nH]nc1C(=O)NCCc1cccnc1)c1ccccn1 [Example 352, N-(3-(((2-pyridin-3-ylethyl)amino)carbonyl)-1H-pyrazol-4-yl)pyridine-2-carboxamide]"
7,< 100,CC(C)NC(=O)c1n[nH]cc1NC(=O)c1ccccc1 [compound 027]
8,< 100,CC(=O)Nc1cccc(C(=O)Nc2c[nH]nc2C(=O)NC2CCCC2)c1 [compound 075]
9,< 100,"O=C(NC1CCCC1)c1n[nH]cc1NC(=O)c1c(F)cccc1F [Example 366, N-cyclopentyl-4-((2,6-difluorobenzoyl)amino)-1H-pyrazole-3-carboxamide]"
10,< 100,O=C(Nc1c[nH]nc1C(=O)NCc1ccco1)c1ccccc1 [compound 152]
11,242,"O=C(CCc1ccccc1)Nc1c[nH]nc1C(=O)NCc1ccccc1 [Example 106, N-benyzl-4-[(3-phenylpropanoyl)amino]-1H-pyrazole-3-carboxamide]"
12,< 100,"O=C(Nc1c[nH]nc1C(=O)Nc1cccc(C(F)(F)F)c1)c1ccccn1 [Example 343, N-(3-(((3-(trifluoromethyl)phenyl)amino)carbonyl)-1H-pyrazol-4-yl)pyridine-2-carboxamide]"
13,< 100,O=C(CCc1ccccc1)Nc1c[nH]nc1C(=O)NC1CCCC1 [compound 067]
14,< 100,CNC(=O)c1n[nH]cc1NC(=O)C(c1ccccc1)c1ccccc1 [compound 003]
15,245,COc1ccccc1CC(=O)Nc1c[nH]nc1C(=O)NC(C)C [compound 025]
16,109,CC(C)NC(=O)c1n[nH]cc1NS(=O)(=O)C[C@]12CCC(CC1=O)C2(C)C [compound 197]
17,485,"CCCN(CCC)S(=O)(=O)c1ccc(C(=O)Nc2c[nH]nc2C(=O)NCCc2ccccc2)cc1 [Example 136, 4-({4-[(dipropylamino)sulfonyl]benzoyl}amino)-N-(2-phenylethyl)-1H-pyrazole-3-carboxamide]"
18,< 100,"COCCNC(=O)c1n[nH]cc1NC(=O)c1cccc(NC(C)=O)c1 [Example 370, 4-((3-(acetylamino)benzoyl)amino)-N-(2-methoxyethyl)-1H-pyrazole-3-carboxamide]"
19,< 100,"O=C(Nc1c[nH]nc1C(=O)Nc1ccccc1)c1ccccn1 [Example 341, N-(3-(anilinocarbonyl)-1H-pyrazol-4-yl)pyridine-2-carboxamide]"
20,< 100,COc1ccccc1CC(=O)Nc1c[nH]nc1C(=O)NC1CCCC1 [compound 068]

row,IC50 [nM],SMILES
1,< 100,"O=C(CCc1ccccc1)Nc1c[nH]nc1C(=O)NCCc1ccccc1 [Example 128, N-(2-phenylethyl)-4-[(3-phenylpropanoyl)amino]-1H-pyrazole-3-carboxamide]"
2,< 100,"O=C(Nc1c[nH]nc1C(=O)NCCSc1ccccc1)c1ccccn1 [Example 361, N-(3-(((2-(phenylthio)ethyl)amino)carbonyl)-1H-pyrazol-4-yl)pyridine-2-carboxamide]"
3,< 100,"O=C(NCCc1ccccc1)c1n[nH]cc1NC(=O)C1CCCCC1 [Example 124, 4-[(cyclohexylcarbonyl)amino]-N-(2-phenylethyl)-1H-pyrazole-3-carboxamide]"
4,< 100,"O=C(Nc1c[nH]nc1C(=O)NCC(F)(F)F)c1ccccn1 [Example 360, N-(3-(((2,2,2-trifluoroethyl)amino)carbonyl)-1H-pyrazol-4-yl)pyridine-2-carboxamide]"
5,194,O=C(Nc1c[nH]nc1C(=O)NCc1ccco1)c1ccc(OC(F)(F)F)cc1 [compound 160]
6,< 100,"O=C(Nc1c[nH]nc1C(=O)NCc1ccc(-c2ccccc2)cc1)c1ccccn1 [Example 354, N-(3-(((biphenyl-4-ylmethyl)amino)carbonyl)-1H-pyrazol-4-yl)pyridine-2-carboxamide]"
7,< 100,CC(C)NC(=O)c1n[nH]cc1NC(=O)/C=C/c1ccccc1 [compound 023]
8,< 100,O=C(NC1CCCC1)c1n[nH]cc1NC(=O)c1c[nH]c2ccccc12 [compound 078]
9,115,O=C(CCc1ccccc1)Nc1c[nH]nc1C(=O)Nc1ccccc1 [compound 087]
10,< 100,CC(C)NC(=O)c1n[nH]cc1NC(=O)c1ccc2[nH]ccc2c1 [compound 036]
11,299,CCCN(CCC)S(=O)(=O)c1ccc(C(=O)Nc2c[nH]nc2C(=O)NC2CCCC2)cc1 [compound 074]
12,334,"O=C(CCc1ccccc1)Nc1c[nH]nc1C(=O)NCc1ccco1 [Example 149, N-(2-furylmethyl)-4-[(3-phenylpropanoyl)amino]-1H-pyrazole-3-carboxamide]"
13,< 100,"O=C(Nc1c[nH]nc1C(=O)NCCc1ccccc1)c1ccc(OC(F)(F)F)cc1 [Example 138, N-(2-phenylethyl)-4-{[4-(trifluoromethoxy)-benzoyl]amino}-1H-pyrazole-3-carboxamide]"
14,< 100,"CCC(CC)C(=O)Nc1c[nH]nc1C(=O)NC1CCCC1 [Example 368, N-cyclopentyl-4-((2-ethylbutanoyl)amino)-1H-pyrazole-3-carboxamide]"
15,< 100,"CC(=O)Nc1cccc(C(=O)Nc2c[nH]nc2C(=O)NCC(F)(F)F)c1 [Example 375, 4-((3-(acetylamino)benzoyl)amino)-N-(2,2,2-trifluoroethyl)-1H-pyrazole-3-carboxamide]"
16,< 100,O=C(Nc1c[nH]nc1C(=O)NC1CCCC1)c1ccccc1 [compound 070]
17,< 100,"CC(C)OCCCNC(=O)c1n[nH]cc1NC(=O)c1ccccn1 [Example 353, N-(3-(((3-isopropoxypropyl)amino)carbonyl)-1H-pyrazol-4-yl)pyridine-2-carboxamide]"
18,< 100,"N#CCCNC(=O)c1n[nH]cc1NC(=O)c1cccc(C#N)c1 [Example 417, N-(2-cyanoethyl)-4-(3-cyanobenzoylamino)-1H-pyrazole-3-carboxamide]"
19,< 100,"O=C(Nc1c[nH]nc1C(=O)NCCCOc1ccccc1)c1ccccn1 [Example 391, N-(3-(((3-phenoxypropyl)amino)carbonyl)-1H-pyrazol-4-yl)pyridine-2-carboxamide]"
20,< 100,"O=C(Nc1c[nH]nc1C(=O)NCc1ccccc1)c1ccc(F)cc1F [Example 113, N-benzyl-4-[(2,4-difluorobenzoyl)amino]-1H-pyrazole-3-carboxamide]"

row,SMILES,IC50 [nM]
1,"CC(=O)Nc1cccc(C(=O)Nc2c[nH]nc2C(=O)NCCOC(C)(C)C)c1 [Example 381, 4-((3-(acetylamino)benzoyl)amino)-N-(2-tert-butoxyethyl)-1H-pyrazole-3-carboxamide]",140
